Test results from patent US12667581B2, “Therapeutics for treatment of COVID-19 symptoms” (The Texas A&M University System, priority 2020, dated 2026).

Assays:
Format in all cases: in vivo, C57BL/6 mice
[1] = test system: Mouse Model of COVID-19-Like Cytokine Storm (ORN06); assay: Serum cytokine levels (LEGENDplex Mouse Inflammation Panel), ORN06 mouse model; conditions: AMPCA 0.1 mg/kg i.p. at 24 and 48 hours after ORN06, serum at day 3
Experimental: (§1) To determine if DANA or AMPCA affect CALD symptoms in mice, 5 week old 20 g male and female C57BL/6 mice (#000664; Jackson Laboratories, Bar Harbor, ME) were given an oropharyngeal aspiration of 1 mg/kg (20 μg/mouse) ORN06/LyoVec (LyoVec protects the ssRNA from degradation and facilitates cellular uptake) (InvivoGen, San Diego, CA) in 50 μl phosphate-buffered saline (PBS) to induce symptoms of pulmonary inflammation, or an oropharyngeal aspiration of an equal volume of PBS as a control, following Current protocols in mouse biology 2, 167-175 (2012). At 24 and 48 hours after ORN06 insult, some of ORN06-treated mice were given intraperitoneal injections of 100 μl PBS, or 10 mg/kg of DANA (N-Acetyl-2,3-dehydro-2-deoxyneuraminic acid; #252926-10MG, EMD, Millipore, Burlington, MA) or 0.1 mg/kg of 2-piperidinecarboxylic acid, 4-amino-1-methyl (AMPCA, #A00285-13785-026, Sundia, Shanghai, China) in 100 μl PBS. The DANA was dissolved in water to 2.5 mg/ml, and then diluted in PBS The AMPCA was dissolved directly in PBS. At day 3, mice were euthanized by CO2 inhalation, and BALF was obtained as previously described in Current protocols in mouse biology 2, 167-175 (2012); Proceedings of the National Academy of Sciences of the United States of America 112, 8385-8390 (2015); Public Library of Science ONE 9, e93730 (2014); and Nature Scientific Reports 8; 7 (1):15069 (2017). The experiment was performed in accordance with the recommendations in the Guide for the Care and use of Laboratory Animals of the National Institutes of Health. The Texas A&M University Animal Use and Care Committee approved the protocol.
Serum samples collected at day 3 post control or ORN06 insult were processed following the manufacturer's protocol. (#740150, LEGENDplex Mouse Inflammation Panel (13-plex), Biolegend, San Diego, CA) for simultaneous quantification of mouse cytokines using an Accuri C6 (BD Bioscience, Franklin Lakes, NJ) flow cytometer.

[2] = test system: Mouse Model of CALD (ORN06 oropharyngeal aspiration); assay: Alveolar wall thickness in H&E-stained lung cryosections, ORN06 mouse model of CALD; conditions: i.p. at 24 and 48 hours after ORN06 (DANA 10 mg/kg, AMPCA 0.1 mg/kg), day 3, FIGS. 5 and 6
Experimental: (§2) To determine if DANA or AMPCA affect CALD symptoms in mice, 5 week old 20 g male and female C57BL/6 mice (#000664; Jackson Laboratories, Bar Harbor, ME) were given an oropharyngeal aspiration of 1 mg/kg (20 μg/mouse) ORN06/LyoVec (LyoVec protects the ssRNA from degradation and facilitates cellular uptake) (InvivoGen, San Diego, CA) in 50 μl phosphate-buffered saline (PBS) to induce symptoms of pulmonary inflammation, or an oropharyngeal aspiration of an equal volume of PBS as a control, following Current protocols in mouse biology 2, 167-175 (2012). At 24 and 48 hours after ORN06 insult, some of ORN06-treated mice were given intraperitoneal injections of 100 μl PBS, or 10 mg/kg of DANA (N-Acetyl-2,3-dehydro-2-deoxyneuraminic acid; #252926-10MG, EMD, Millipore, Burlington, MA) or 0.1 mg/kg of 2-piperidinecarboxylic acid, 4-amino-1-methyl (AMPCA, #A00285-13785-026, Sundia, Shanghai, China) in 100 μl PBS. […]
(§3) After collecting BALF, the lungs from the mice were harvested and inflated with Surgipath frozen section compound (#3801480, Leica, Buffalo Grove, IL) and preserved at −80° C. […] Image quantification was done using Image J (NIH, Bethesda, MD). […] Using ‘ Straight’ command, the length of the alveolar wall on the image was measured and was recorded with the ‘Measure’ command. 8 measurements of the alveolar wall thickness were recorded for each image. […]

[3] = test system: Mouse Model of CALD (ORN06 oropharyngeal aspiration); assay: Percent of exudate-containing alveoli in lung cryosections, ORN06 mouse model of CALD; conditions: male mice, i.p. at 24 and 48 hours after ORN06 (DANA 10 mg/kg, AMPCA 0.1 mg/kg), day 3, FIG. 7
Experimental: as §2, §3

[4] = test system: Mouse Model of CALD (ORN06 oropharyngeal aspiration); assay: BALF cell types by Wright-Giemsa staining, ORN06 mouse model of CALD; conditions: for ORN06-induced increase in the number of monocyte/macrophages in the BALF / counts of specific cell types in the BALF, treated groups versus Control group: i.p. at 24 and 48 hours after ORN06 (DANA 10 mg/kg, AMPCA 0.1 mg/kg); for ORN06-induced increase in the number of monocyte/macrophages in the BALF: day 3, FIG. 2A; for counts of specific cell types in the BALF, treated groups versus Control group: day 3, FIG. 2A-C
Experimental: as §1
Total cells in the BALF were then quantified. The BALF cells were processed to prepare cell spots as described previously in Public Library of Science ONE 9, e93730 (2014), Nature Scientific Reports 8; 7 (1):15069 (2017); American Journal of Physiology Lung Cellular and Molecular Physiology, 1; 318 (1):L165-L179 (2020). After air drying for 48 hours at room temperature, some of the prepared BALF cell spots were fixed and treated with Wright-Giemsa stain (#08711, Polysciences, Inc., Warrington, PA) following the manufacturer's instructions. One hundred and fifty cells per mouse were examined and quantified for cell type following the manufacturer's instructions. Imaging of BALF cell spots stained with Wright-Giemsa stain was done with a Nikon Eclipse Ti2 microscope.

[5] = test system: Mouse Model of CALD (ORN06 oropharyngeal aspiration); assay: Total cells in BALF, ORN06 mouse model of CALD; conditions: i.p. at 24 and 48 hours after ORN06 insult (DANA 10 mg/kg, AMPCA 0.1 mg/kg); BALF at day 3; FIG. 1
[6] = test system: Mouse Model of CALD (ORN06 oropharyngeal aspiration); assay: Percentage of alveolar airspace area occupied by exudate, ORN06 mouse model of CALD; conditions: lung cryosections; i.p. at 24 and 48 hours after ORN06 (DANA 10 mg/kg, AMPCA 0.1 mg/kg); day 3; FIG. 8
Experimental: To determine if DANA or AMPCA affect CALD symptoms in mice, 5 week old 20 g male and female C57BL/6 mice (#000664; Jackson Laboratories, Bar Harbor, ME) were given an oropharyngeal aspiration of 1 mg/kg (20 μg/mouse) ORN06/LyoVec (LyoVec protects the ssRNA from degradation and facilitates cellular uptake) (InvivoGen, San Diego, CA) in 50 μl phosphate-buffered saline (PBS) to induce symptoms of pulmonary inflammation, or an oropharyngeal aspiration of an equal volume of PBS as a control, following Current protocols in mouse biology 2, 167-175 (2012). […]
as §3
Using the Threshold function and the Measure Tool in NIH ImageJ, the percent area of each 20× objective image of lung cryosections described above containing tissue (not counting pale pink exudates) was measured, and this percentage was subtracted from 100% to obtain the percent area of the image occupied by the alveolar airspace. […]

[7] = test system: Mouse Model of CALD (ORN06 oropharyngeal aspiration); assay: Clot-like aggregates in BALF cell spots, ORN06 mouse model of CALD; conditions: male mice; irregularly shaped 2-10 μm object staining dark blue with Wright-Giemsa; i.p. at 24 and 48 hours after ORN06 (DANA 10 mg/kg, AMPCA 0.1 mg/kg); day 3; FIG. 4
[8] = test system: Mouse Model of CALD (ORN06 oropharyngeal aspiration); assay: BALF cell types by immunochemistry on cell spots, ORN06 mouse model of CALD; conditions: i.p. at 24 and 48 hours after ORN06 (DANA 10 mg/kg, AMPCA 0.1 mg/kg), day 3, FIG. 3
Experimental: as §1
Immunochemistry on BALF cell spots and counts of cells was performed as described previously in Public Library of Science ONE 9, e93730 (2014); Proceedings of the National Academy of Sciences of the United States of America 112, 8385-8390 (2015); Nature Scientific Reports 8; 7 (1):15069 (2017); American Journal of Physiology Lung Cellular and Molecular Physiology, 1; 318 (1)1,165-L179 (2020) using anti-CD3 (100202, clone 17A2, BioLegend, San Diego, CA) to detect T-cells, anti-CD11b (101202, clone M1/70, BioLegend) to detect blood and inflammatory macrophages, anti-CD11c (M100-3, clone 223H7, MBL International, Woburn, MA) to detect alveolar macrophages and dendritic cells, anti-CD45 (103102, clone 30-F11, BioLegend) for total leukocytes, anti-Ly6G (127602, clone 1A8, BioLegend) to detect neutrophils, with isotype-matched irrelevant rat antibodies diluted to 5 μg/ml in PBS containing 2% (w:v) bovine serum albumin (PBS-BSA) (VWR, Radnor, PA). Cells were then incubated in coplin jars containing PBS, with 6 changes of buffer over 30 minutes. […] Using a 40× objective, at least 100 cells from each stained BALF spot were examined and the percent positive cells was recorded.

Compound	serum levels of IL-1β ([1]; FIG. 9A)	serum levels of IL-6 ([1]; FIG. 9B)	serum levels of IL-12p70 ([1]; FIG. 9C)	serum levels of IL-23 ([1]; FIG. 9D)	serum levels of IL-27 ([1]; FIG. 9E)	ORN06-induced alveolar wall thickness increase [2]	percentage of exudate-containing alveoli [3]	ORN06-induced increase in the number of lymphocytes in the BALF ([4]; AMPCA 0.1 mg/kg i.p. at 24 and 48 hours after ORN06, day 3, FIG. 2B)	ORN06-induced increase in the number of monocyte/macrophages in the BALF [4]	counts of specific cell types in the BALF, treated groups versus Control group [4]	ORN06-induced increase in the number of cells in the BALF [5]	number of cells in the BALF, treated groups versus Control group [5]	percentage of the alveolar airspace area occupied by exudate [6]	clot-like aggregates in the BAL cell spots [7]	ORN06-induced increase in the number of CD11c positive macrophages and/or dendritic cells in the BALF [8]	ORN06-induced increase in the number of CD45-positive leukocytes in the BALF [8]
CN1CCC(N)CC1C(=O)O (centres unmarked) [AMPCA, 4-amino-1-methyl-2-piperidine carboxylic acid]	decreased the serum levels of both cytokines	decreased the serum levels of both cytokines	decreased the serum levels of IL-12p70	decreased the serum levels	decreased the serum levels	significantly reduced	decreased the percentage of exudate-containing alveoli	decreased the ORN06-induced increase in the number of monocyte/macrophages and lymphocytes	decreased the ORN06-induced increase in the number of monocyte/macrophages	no significant difference	ameliorated the ORN06-induced increase in the number of cells in the BALF	no significant difference	decreased the percentage of the alveolar airspace area occupied by exudate	No clot-like aggregates were observed	decreased the ORN06-induced increase in the number of CD11c positive macrophages and/or dendritic cells	decreased the ORN06-induced increase
CC(=O)N[C@H]1[C@H]([C@H](O)[C@H](O)CO)OC(C(=O)O)=C[C@@H]1O [DANA, 2-deoxy-2,3-didehydro-N-acetylneuraminic acid]						significantly reduced	decreased the percentage of exudate-containing alveoli		decreased the ORN06-induced increase in the number of monocyte/macrophages	no significant difference	ameliorated the ORN06-induced increase in the number of cells in the BALF	no significant difference	decreased the percentage of the alveolar airspace area occupied by exudate	no clot-like aggregates were observed in the BAL cell spots from 2 of the 3	decreased the ORN06-induced increase in the number of CD11c positive macrophages and/or dendritic cells	decreased the ORN06-induced increase
